From the NIST ThermoML archive (doi:10.1021/je4003916)

Assay: xn = mol fraction of the nth substance listed
Conditions: 101 kPa, Liquid; for mass density: Vibrating tube method

C1CCOC1 [tetrahydrofuran] + CCCCO
Conditions	mass density [kg/m3]	viscosity [mPa·s]
288.15 K, x1 = 0.1001	820.7	2.377
288.15 K, x1 = 0.2003	828.11	1.788
288.15 K, x1 = 0.3	835.61	1.416
288.15 K, x1 = 0.4003	843.28	1.15
288.15 K, x1 = 0.5	851.03	0.962
288.15 K, x1 = 0.6001	858.98	0.836
288.15 K, x1 = 0.7003	867.19	0.723
288.15 K, x1 = 0.8006	875.64	0.642
288.15 K, x1 = 0.9002	884.34	0.578
288.15 K, x1 = 1	893.29	0.522
293.15 K, x1 = 0.1001	816.75	2.111
293.15 K, x1 = 0.2003	823.99	1.612
293.15 K, x1 = 0.3	831.34	1.292
293.15 K, x1 = 0.4003	838.84	1.061
293.15 K, x1 = 0.5	846.43	0.895
293.15 K, x1 = 0.6001	854.21	0.785
293.15 K, x1 = 0.7003	862.27	0.683
293.15 K, x1 = 0.8006	870.54	0.61
293.15 K, x1 = 0.9002	879.08	0.555
293.15 K, x1 = 1	887.86	0.502
298.15 K, x1 = 0.1001	812.77	1.882
298.15 K, x1 = 0.2003	819.86	1.46
298.15 K, x1 = 0.3	827.04	1.184
298.15 K, x1 = 0.4003	834.38	0.979
298.15 K, x1 = 0.5	841.8	0.834
298.15 K, x1 = 0.6001	849.43	0.736
298.15 K, x1 = 0.7003	857.31	0.645
298.15 K, x1 = 0.8006	865.41	0.579
298.15 K, x1 = 0.9002	873.78	0.528
298.15 K, x1 = 1	882.4	0.48
303.15 K, x1 = 0.1001	808.76	1.687
303.15 K, x1 = 0.2003	815.69	1.331
303.15 K, x1 = 0.3	822.71	1.087
303.15 K, x1 = 0.4003	829.89	0.908
303.15 K, x1 = 0.5	837.15	0.779
303.15 K, x1 = 0.6001	844.61	0.692
303.15 K, x1 = 0.7003	852.32	0.61
303.15 K, x1 = 0.8006	860.26	0.55
303.15 K, x1 = 0.9002	868.46	0.502
303.15 K, x1 = 1	876.91	0.459
308.15 K, x1 = 0.1001	804.73	1.517
308.15 K, x1 = 0.2003	811.49	1.215
308.15 K, x1 = 0.3	818.36	1
308.15 K, x1 = 0.4003	825.36	0.843
308.15 K, x1 = 0.5	832.46	0.728
308.15 K, x1 = 0.6001	839.75	0.652
308.15 K, x1 = 0.7003	847.3	0.576
308.15 K, x1 = 0.8006	855.06	0.521
308.15 K, x1 = 0.9002	863.09	0.478
308.15 K, x1 = 1	871.38	0.44
313.15 K, x1 = 0.1001	800.66	1.368
313.15 K, x1 = 0.2003	807.26	1.111
313.15 K, x1 = 0.3	813.96	0.922
313.15 K, x1 = 0.4003	820.81	0.782
313.15 K, x1 = 0.5	827.74	0.681
313.15 K, x1 = 0.6001	834.86	0.608
313.15 K, x1 = 0.7003	842.24	0.543
313.15 K, x1 = 0.8006	849.83	0.494
313.15 K, x1 = 0.9002	857.7	0.454
313.15 K, x1 = 1	865.81	0.418
318.15 K, x1 = 0.1001	796.55	1.238
318.15 K, x1 = 0.2003	802.99	1.019
318.15 K, x1 = 0.3	809.53	0.852
318.15 K, x1 = 0.4003	816.21	0.727
318.15 K, x1 = 0.5	822.98	0.637
318.15 K, x1 = 0.6001	829.93	0.571
318.15 K, x1 = 0.7003	837.14	0.513
318.15 K, x1 = 0.8006	844.56	0.466
318.15 K, x1 = 0.9002	852.25	0.428
318.15 K, x1 = 1	860.2	0.396
323.15 K, x1 = 0.1001	792.4	1.139
323.15 K, x1 = 0.2003	798.67	0.949
323.15 K, x1 = 0.3	805.05	0.795
323.15 K, x1 = 0.4003	811.57	0.683
323.15 K, x1 = 0.5	818.17	0.599
323.15 K, x1 = 0.6001	824.96	0.546
323.15 K, x1 = 0.7003	832	0.487
323.15 K, x1 = 0.8006	839.25	0.444
323.15 K, x1 = 0.9002	846.77	0.41
323.15 K, x1 = 1	854.55	0.384

COC(=O)CCCCC(=O)OC [dimethyl 1,6-hexanedioate] + CCCCO
viscosity [mPa·s], stabinger viscometer
Conditions	x1 = 0.0999	x1 = 0.2004	x1 = 0.2999	x1 = 0.4003	x1 = 0.4999	x1 = 0.6007	x1 = 0.6996	x1 = 0.7994	x1 = 0.8991	x1 = 1
288.15 K	2.635	2.426	2.384	2.422	2.519	2.66	2.884	3.08	3.379	3.751
293.15 K	2.322	2.147	2.114	2.149	2.237	2.361	2.556	2.723	2.977	3.289
298.15 K	2.057	1.911	1.886	1.92	2.003	2.11	2.287	2.425	2.649	2.91
303.15 K	1.837	1.716	1.699	1.732	1.805	1.902	2.06	2.183	2.374	2.604
308.15 K	1.646	1.546	1.536	1.569	1.636	1.724	1.868	1.975	2.144	2.343
313.15 K	1.481	1.4	1.396	1.428	1.491	1.572	1.704	1.797	1.947	2.121
318.15 K	1.338	1.272	1.273	1.306	1.365	1.44	1.562	1.645	1.778	1.933
323.15 K	1.229	1.176	1.179	1.214	1.268	1.339	1.456	1.528	1.648	1.79
